Assay results reported in article PMC13181761, “New Analogs of the Compstatin Family of Clinical Complement Inhibitors with Low Picomolar Target Affinity” (Journal of Medicinal Chemistry, 2026).
Several values for one entry are separate records, joined by “and”; a condition that tells them apart may be missing. Equal values may be shown once. Read-outs that look alike come from different tables or passages of the source. Where a SMILES comes first, the peptide text is derived from it. Bridges are numbered along the chain shown (N, C = ends). [ ]: non-standard residue; d: D form. Trp(1-Me) = Cn1cc(C[C@H](N)C(=O)O)c2ccccc21; NMeI = CC[C@H](C)[C@H](NC)C(=O)O; Sar = CNCC(=O)O

Experiments:
[1] = target: T1, human C3b (Homo sapiens, UniProt P01024); experiment: SPR kinetic binding to immobilized human C3b
T1 construct: purchased Complement Technology, Tyler, TX, USA
Experimental: Experiments were conducted at 25 °C in HBST buffer (10 mM HEPES, 150 mM NaCl, and 0.05% Tween-20, pH 7.4; XanTec bioanalytics). Human C3b (Complement Technology, Tyler, TX, USA) was immobilized via amine-reactive coupling. […] Individual peptide samples were injected for 120 s, followed by a 180 s dissociation phase. […] Signals from the reference cell and buffer blank injections were subtracted within each dilution series to correct for buffer effects and injection artifacts. Data were fitted to a Langmuir 1:1 binding model to calculate association (k a) and dissociation (k d) rate constants, and the equilibration constant K D is calculated based on the equation: K D = k d/k a. In the case of Cp40 derivatives and Cp60, a single-cycle approach was used for kinetic analysis by injecting 5 increasing concentrations of each compound (0.5-40 nM) consecutively without a regeneration period in between injections. Individual injections within a cycle were 120 s long with a 5 min dissociation phase between injections. […] Analog Cp40 was included in each experimental series as a reference and internal control. Signals from the reference cell and buffer blank injections were subtracted to correct for buffer effects and injection artifacts. Kinetic data were processed in BiaEvaluation (Cytiva) using single-cycle evaluation by global fitting each data set to a Langmuir 1:1 binding model. The reported kinetic parameters (Tables and ) indicate the mean values and standard deviations of three independent experiments. SPR sensorgrams are provided in the Supporting Information.

[2] = test system: classical pathway complement activation; experiment: Classical pathway (CP) complement activation ELISA in normal human serum; format: biochemical
Experimental: The inhibitory activity of selected peptides in preventing pathway-specific complement activation was evaluated using ELISA as previously described. All assays used normal human serum (NHS), pooled from five unrelated, anonymized healthy donors, obtained with informed consent according to the local ethics committee, and following the guidelines of the Declaration of Helsinki (Blutspendezentrum Basel, Switzerland). To assess classical pathway activity, flat-bottom MaxiSorp 96-well plates (Thermo Fisher) were coated overnight at room temperature with 33 μg/mL IgM (Sigma) in a 0.1 M sodium carbonate buffer. Plates were washed 5 times with phosphate-buffered saline (Dubleccòs, Bioconcept) supplemented with 0.05% Tween-20 (PBS-T). Serial dilutions of peptides were prepared in 1% (v/v) NHS using HBBT++ assay buffer (10 mM HEPES, 150 mM NaCl, pH 7.4, 0.5% BSA, 0.15 mM CaCl2, 0.5 mM MgCl2, 0.1% Tween-20), with samples diluted in 1% (v/v) NHS. Negative controls included each inhibitor in assay buffer alone, assay buffer only, and 1% (v/v) NHS with 10 mM EDTA. HBBT++ with 1% (v/v) pooled NHS served as the 100%-control. After incubating for 1 h at 37 °C and shaking at 700 rpm, plates were washed 5 times with PBS-T. Next, 100 μL of biotinylated monoclonal mouse antihuman TCC antibody (1:1000, Hycult, clone: aE11) to detect terminal complement complexes was added to each well, followed by 1 h incubation at room temperature while shaking. After another 5 washes with PBS-T, 100 μL of HRP-conjugated NeutrAvidin (1:10,000, Invitrogen) was added to each well and incubated for 20 min at room temperature while shaking. Plates were washed 5 more times with PBS-T before adding 100 μL of 1-Step Turbo TMB-ELISA solution (Thermo Scientific) to each well. The reaction was allowed to develop until a light blue color appeared, and then stopped with 100 μL of 2 M sulfuric acid. Colorimetric detection was performed at 450 nm by using a plate reader (Synergy HT, Biotek). All assays were conducted in triplicate and normalized against 100% (no inhibitor, 1% (v/v) serum in buffer) and 0% (1% (v/v) serum in EDTA buffer) controls. In the cases of Cp60 and Cp40, 5% (v/v) NHS was used instead of 1% (v/v) NHS in some assays. Inhibition curves were fitted using nonlinear regression to a normalized variable slope model in Prism (v9-10, GraphPad).

[3] = cynomolgus monkey, in vivo, 2 mg/kg
[4] = cynomolgus monkey, in vivo, sc, 2 mg/kg
[5] = test system: alternative pathway complement activation; experiment: Alternative pathway (AP) complement activation ELISA in normal human serum; format: biochemical; conditions: diluted human serum (figure legends 1%; method 10% NHS)
Experimental: The inhibitory activity of selected peptides in preventing pathway-specific complement activation was evaluated using ELISA as previously described. All assays used normal human serum (NHS), pooled from five unrelated, anonymized healthy donors, obtained with informed consent according to the local ethics committee, and following the guidelines of the Declaration of Helsinki (Blutspendezentrum Basel, Switzerland).
The activity of selected peptides in preventing the activation of the alternative pathway was evaluated by analogy to the classical pathway ELISA described above, with some adjustments. Flat-bottom PolySorb 96-well plates (Thermo Fisher) were coated overnight at room temperature with 40 μg/mL lipopolysaccharide from Salmonella enteritidis (Sigma-Aldrich) in 0.1 M sodium carbonate buffer and washed 5 times with PBS-T. Serial dilutions of peptides were prepared in 10% (v/v) pooled NHS using HBBT + assay buffer (10 mM HEPES, 150 mM NaCl, pH 7.4, 0.5% BSA, 5 mM EGTA, 5 mM MgCl2, and 0.1% Tween-20), with samples diluted in 10% (v/v) NHS. Negative controls included each inhibitor in assay buffer alone, assay buffer only, and 10% (v/v) serum with 10 mM EDTA. HBBT+ with 10% (v/v) pooled NHS served as the 100%-control. Subsequent steps were performed as described above.

[6] = SPR, 1:1 Langmuir fit, average of 3 independent experiments, SD in brackets
[7] = SPR screening at 2 and 1 μM, series up to 16 μM, read-out: affinity hC3b (class symbol N.B./W.B.)

T1 sequence (P01024 23-667 limits assumed): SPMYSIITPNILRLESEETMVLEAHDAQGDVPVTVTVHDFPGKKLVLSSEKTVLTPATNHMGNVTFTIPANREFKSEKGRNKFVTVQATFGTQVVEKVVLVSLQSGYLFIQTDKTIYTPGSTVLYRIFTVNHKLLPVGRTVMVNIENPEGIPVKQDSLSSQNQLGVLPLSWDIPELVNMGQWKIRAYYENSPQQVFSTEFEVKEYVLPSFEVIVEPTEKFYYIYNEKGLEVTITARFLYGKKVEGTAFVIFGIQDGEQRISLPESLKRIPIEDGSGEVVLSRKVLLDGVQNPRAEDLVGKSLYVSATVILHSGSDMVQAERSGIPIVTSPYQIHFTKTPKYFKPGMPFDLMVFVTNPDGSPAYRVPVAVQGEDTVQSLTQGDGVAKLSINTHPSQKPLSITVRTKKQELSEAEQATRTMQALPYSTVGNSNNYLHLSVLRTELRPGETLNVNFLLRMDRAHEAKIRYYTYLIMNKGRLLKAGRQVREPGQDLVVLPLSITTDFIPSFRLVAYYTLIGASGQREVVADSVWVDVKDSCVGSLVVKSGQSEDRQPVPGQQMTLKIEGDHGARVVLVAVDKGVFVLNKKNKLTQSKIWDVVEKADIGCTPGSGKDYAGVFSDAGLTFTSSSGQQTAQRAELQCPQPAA
T1 sequence (P01024 749-1663 partner limits assumed): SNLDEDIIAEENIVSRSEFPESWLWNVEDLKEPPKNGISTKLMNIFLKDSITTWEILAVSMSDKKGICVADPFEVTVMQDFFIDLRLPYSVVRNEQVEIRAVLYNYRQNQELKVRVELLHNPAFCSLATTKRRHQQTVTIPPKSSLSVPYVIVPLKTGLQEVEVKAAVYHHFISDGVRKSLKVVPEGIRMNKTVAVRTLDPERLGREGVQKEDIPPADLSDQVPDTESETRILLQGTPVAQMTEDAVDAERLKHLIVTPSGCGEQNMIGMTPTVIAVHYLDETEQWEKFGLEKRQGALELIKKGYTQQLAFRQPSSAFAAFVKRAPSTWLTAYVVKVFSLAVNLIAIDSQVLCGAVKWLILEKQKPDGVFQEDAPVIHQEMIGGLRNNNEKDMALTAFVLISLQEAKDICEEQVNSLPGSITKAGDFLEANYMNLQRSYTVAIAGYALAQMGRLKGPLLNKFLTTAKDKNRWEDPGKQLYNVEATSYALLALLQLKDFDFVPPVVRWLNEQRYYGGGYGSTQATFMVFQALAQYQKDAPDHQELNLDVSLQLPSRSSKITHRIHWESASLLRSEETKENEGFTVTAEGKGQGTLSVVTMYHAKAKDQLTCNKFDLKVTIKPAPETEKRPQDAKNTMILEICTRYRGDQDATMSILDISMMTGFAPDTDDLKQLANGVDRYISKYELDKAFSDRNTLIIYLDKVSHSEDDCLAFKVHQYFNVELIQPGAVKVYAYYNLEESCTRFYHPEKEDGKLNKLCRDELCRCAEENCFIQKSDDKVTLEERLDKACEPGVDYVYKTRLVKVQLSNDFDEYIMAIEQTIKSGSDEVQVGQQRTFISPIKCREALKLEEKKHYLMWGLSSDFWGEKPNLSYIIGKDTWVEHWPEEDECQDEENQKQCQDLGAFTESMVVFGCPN

Compound: CC[C@H](C)[C@H](NC(=O)[C@H](N)Cc1ccc(O)cc1)C(=O)N[C@H]1CSSC[C@@H](C(=O)N(C)[C@H](C(N)=O)[C@@H](C)CC)NC(=O)[C@H](CCCNC(=N)N)NC(=O)[C@H](Cc2c[nH]cn2)NC(=O)[C@H](C)NC(=O)CN(C)C(=O)[C@H](Cc2c[nH]c3ccccc23)NC(=O)[C@H](CC(=O)O)NC(=O)[C@H](CCC(N)=O)NC(=O)[C@H](Cc2cn(C)c3ccccc23)NC(=O)[C@H]([C@@H](C)CC)NC1=O [Cp60] (H-[dY]ICI[Trp(1-Me)]QDW[Sar]AHRC[NMeI]-NH2; disulfide 3-13)
- fold enhancement in binding affinity of Cp60 over Cp40 ([1]; K D ratio vs Cp40): > 8 fold and 10 fold
- k a, affinity hC3b [1, 6]: 17.6(1.4) 10^5 M^–1 s^–1
- k d, affinity hC3b [1, 6]: 0.01 10^–2 s^–1
- k d, affinity hC3b ([1]; SPR, 1:1 Langmuir fit, average of 3 independent experiments, SD in brackets, listed as Cp40 Ile): 0.01(0.0) 10^–2 s^–1
- target residence (τ) ([1]; SPR, C3b): exceeding 100 min
- koff ([1]; SPR, read-out: dissociation rate k d): 0.0001 s⁻¹
- CP inhibition compared with Cp40 ([2]; CP ELISA, 1% human serum): did not show improved CP inhibition
- IC50 ([2]; CP ELISA, 5% human serum): 97 nM
- fold enhancement in inhibitory potency of Cp60 over Cp40 ([2]; IC50 ratio vs Cp40): < 2 fold

Compound: CC[C@H](C)[C@H](NC(=O)[C@H](N)Cc1ccc(O)cc1)C(=O)N[C@H]1CSSC[C@@H](C(=O)N(C)[C@H](C(=O)N[C@@H](CCCCN)C(=O)N[C@@H](CCCCN)C(N)=O)[C@@H](C)CC)NC(=O)[C@H](CCCNC(=N)N)NC(=O)[C@H](Cc2c[nH]cn2)NC(=O)[C@H](C)NC(=O)CN(C)C(=O)[C@H](Cc2c[nH]c3ccccc23)NC(=O)[C@H](CC(=O)O)NC(=O)[C@H](CCC(N)=O)NC(=O)[C@H](Cc2cn(C)c3ccccc23)NC(=O)[C@H]([C@@H](C)CC)NC1=O [Cp60-KK] (H-[dY]ICI[Trp(1-Me)]QDW[Sar]AHRC[NMeI]KK-NH2; disulfide 3-13)
- AUC(0-t) ([3]; AUC0–120h, range over both animals): 230 to 400 µM·h
- Tmax ([3]; sc): 2 h
- AUC(0-t) ([3]; sc, AUC0-120h): 228 µM·h
- AUC(0-inf) ([3]; sc, AUC0-∞): 479 µM·h
- Cmax ([3]; sc, Cmax): 7.52 µM
- half-life ([3]; sc, t 1/2, terminal elimination phase, range over both animals): 30 to 40 h
- half-life ([3]; sc, t½): 30.8 h
- AUC0-120h [4]: 401 µM·h
- AUC0-∞ [4]: 250 µM·h

Compound: CC[C@H](C)[C@H](NC(C)=O)C(=O)N[C@H]1CSSC[C@@H](C(=O)N[C@H](C(N)=O)[C@@H](C)O)NC(=O)[C@H](CCCN=C(N)N)NC(=O)[C@H](Cc2c[nH]cn2)NC(=O)[C@H](C)NC(=O)CNC(=O)[C@H](Cc2c[nH]c3ccccc23)NC(=O)[C@H](CC(=O)O)NC(=O)[C@H](CCC(N)=O)NC(=O)[C@H](Cc2c[nH]c3ccccc23)NC(=O)[C@H](C(C)C)NC1=O [Cp01, reference compound]
- IC50 ([2]; CP ELISA, 1% diluted normal human serum): 20000 nM
- IC50 [5]: 1400 nM

Compound: CC[C@H](C)[C@H](NC(C)=O)C(=O)N[C@H]1CSSC[C@@H](C(=O)N[C@H](C(N)=O)[C@@H](C)O)NC(=O)[C@H](CCCNC(=N)N)NC(=O)[C@H](Cc2c[nH]cn2)NC(=O)[C@H](C)NC(=O)CNC(=O)[C@H](Cc2c[nH]c3ccccc23)NC(=O)[C@H](CC(=O)O)NC(=O)[C@H](CCC(N)=O)NC(=O)[C@H](Cc2c[nH]c3ccccc23)NC(=O)C(C)(C)NC1=O [Cp01-Val3Aib]
- Kd [1, 7]: > 2000 nM

Compound: CC[C@H](C)[C@H](NC(C)=O)C(=O)N[C@H]1CSSC[C@@H](C(=O)N[C@H](C(N)=O)[C@@H](C)O)NC(=O)[C@H](CCCNC(=N)N)NC(=O)[C@H](Cc2c[nH]cn2)NC(=O)[C@H](C)NC(=O)[C@H](C)NC(=O)[C@H](Cc2c[nH]c3ccccc23)NC(=O)[C@H](CC(=O)O)NC(=O)[C@H](CCC(N)=O)NC(=O)[C@H](Cc2c[nH]c3ccccc23)NC(=O)[C@H](C(C)C)NC1=O [Cp01-Gly8Ala] (Ac-ICVWQDWAAHRCT-NH2; disulfide 2-12)
- binding to C3b (result in words) ([1]; SPR): diminished target binding
- Kd [1, 7]: > 2000 nM

Compound: CC[C@H](C)[C@H](NC(C)=O)C(=O)N[C@H]1CSSC[C@@H](C(=O)N[C@H](C(N)=O)[C@@H](C)O)NC(=O)[C@H](CCCCN)NC(=O)[C@H](Cc2c[nH]cn2)NC(=O)[C@H](C)NC(=O)CNC(=O)[C@H](Cc2c[nH]c3ccccc23)NC(=O)[C@H](CC(=O)O)NC(=O)[C@H](CCC(N)=O)NC(=O)[C@H](Cc2c[nH]c3ccccc23)NC(=O)[C@H](C(C)C)NC1=O [Cp01-Arg11Lys] (Ac-ICVWQDWGAHKCT-NH2; disulfide 2-12)
- fold affinity drop / weaker affinity compared with Cp01 ([1]; K D ratio vs Cp01): ~2 fold
- k a, affinity hC3b [1, 6]: 3.0(0.8) 10^5 M^–1 s^–1
- k d, affinity hC3b [1, 6]: 15(2) 10^–2 s^–1
- Kd ([1]; SPR, 1:1 Langmuir fit, average of 3 independent experiments, SD in brackets, read-out: K D, affinity hC3b): 502 nM

Compound: CC[C@H](C)[C@H](NC(C)=O)C(=O)N[C@H]1CSSC[C@@H](C(=O)N[C@H](C(N)=O)[C@@H](C)O)NC(=O)[C@H](CCCNC(=N)N)NC(=O)[C@H](Cc2c[nH]cn2)NC(=O)[C@H](C)NC(=O)CNC(=O)[C@H](Cc2c[nH]c3ccccc23)NC(=O)[C@H](CC(=O)O)NC(=O)[C@H](CCC(N)=O)NC(=O)[C@H](Cc2c[nH]c3ccccc23)NC(=O)[C@H](Cc2ccc(O)cc2)NC1=O [Cp01 Val3Tyr] (Ac-ICYWQDWGAHRCT-NH2; disulfide 2-12)
- Kd [1, 7]: > 2000 nM

Compound: CC[C@H](C)[C@H](NC(C)=O)C(=O)N[C@H]1CSSC[C@@H](C(=O)N[C@H](C(N)=O)[C@@H](C)O)NC(=O)[C@H](CCCNC(=N)N)NC(=O)[C@H](Cc2c[nH]cn2)NC(=O)[C@H](C)NC(=O)[C@@H](C)NC(=O)[C@H](Cc2c[nH]c3ccccc23)NC(=O)[C@H](CC(=O)O)NC(=O)[C@H](CCC(N)=O)NC(=O)[C@H](Cc2c[nH]c3ccccc23)NC(=O)[C@H](C(C)C)NC1=O [Cp01-Gly8dAla] (Ac-ICVWQDW[dA]AHRCT-NH2; disulfide 2-12)
- binding to C3b (result in words) ([1]; SPR): diminished target binding
- Kd [1, 7]: > 16000 nM
